The text below walks through data of patent US9758492B2, “IDO inhibitors” (Bristol-Myers Squibb Company, priority 2013, dated 2017).

Structures are written as SMILES.

The target in experiment [1] is IDO (Homo sapiens, UniProt P14902). Kind of experiment: LLE_IDO_ABS_DR (IDO assay).
In experiment [2] the target is T1, Human IDO1 (Homo sapiens, UniProt P14902).
T1 construct: expressed in transfected cells; host or cells: HEK293
Kind of experiment: IDO Kynurenine Assay with Human IDO1/HEK293 Cells. Format: cell-based. Conditions: read-out: HEK human IDO-1 (IC50). The essentials:
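HEK293 cells stably expressing human IDO1, in phenol red-free RPMI/10% FBS, exposed to compound for 20 h at 37 °C. Stopped with 0.2% TCA (50 °C, 30 min); kynurenine in supernatant detected with Ehrlich reagent, absorbance 490 nm.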

IDO, sequence (P14902 whole entry): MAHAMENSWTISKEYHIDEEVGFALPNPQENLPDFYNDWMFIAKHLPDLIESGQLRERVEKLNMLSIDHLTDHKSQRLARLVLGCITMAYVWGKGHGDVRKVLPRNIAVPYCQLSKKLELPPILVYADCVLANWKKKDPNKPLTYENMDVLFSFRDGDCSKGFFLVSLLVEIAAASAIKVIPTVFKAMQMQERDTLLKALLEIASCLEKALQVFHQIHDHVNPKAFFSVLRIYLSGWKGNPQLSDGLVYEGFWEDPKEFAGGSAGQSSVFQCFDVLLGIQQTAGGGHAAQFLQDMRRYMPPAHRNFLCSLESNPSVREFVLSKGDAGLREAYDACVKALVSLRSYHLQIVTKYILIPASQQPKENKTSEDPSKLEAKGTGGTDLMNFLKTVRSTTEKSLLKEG
T1 sequence (P14902 whole entry): as above

On to `COCCN(Cc1ccc(Cl)cc1)c1ccc(-c2cc(F)ccc2C(=O)O)cc1NC(=O)Nc1ccc(C)cc1` [Example 193, 4′-((4-chlorobenzyl)(2-methoxyethyl)amino)-5-fluoro-3′-(3-(p-tolyl)ureido)-[1,1′-biphenyl]-2-carboxylic acid], for which the IC50 was 30 nM in experiment [1] and 70 nM in experiment [2].

Consider `Cc1ccc(NC(=O)Nc2cc(-c3cc(F)ccc3C(=O)O)c(F)cc2N(CC(C)C)C2CCCCC2)cc1` [Example 231], for which the IC50 in experiment [1] turned out to be 2.73 nM; in experiment [2], 2.13 nM.

As for `CC(C)CN(Cc1ccccc1)c1ccc(-c2ccccc2-c2nnn[nH]2)cc1NC(=O)Nc1ccc(OC(F)(F)F)cc1` [Example 290, 1-(4-(Benzyl(isobutyl)amino)-2′-(1H-tetrazol-5-yl)-[1,1′-biphenyl]-3-yl)-3-(4-(trifluoromethoxy)phenyl)urea], the IC50 came out at 30 nM in experiment [1] and 50 nM in experiment [2].

For the molecule `CC(C)CN(Cc1ccccc1)c1ccc(-c2ccccc2-c2nnn[nH]2)cc1NC(=O)Nc1ccc(C2CC2)cc1` [Example 291, 1-(4-(Benzyl(isobutyl)amino)-2′-(1H-tetrazol-5-yl)-[1,1′-biphenyl]-3-yl)-3-(4-cyclopropylphenyl)urea], the IC50 in experiment [1] is 90 nM; in experiment [2], 1830 nM.

For `O=C(Nc1ccc(C2CC2)cc1)Nc1cc(-c2ccccc2-c2nnn[nH]2)ccc1N(CCC(F)(F)F)Cc1ccc(F)cc1C(F)(F)F` [Example 299, 1-(4-cyclopropylphenyl)-3-(4-((4-fluoro-2-(trifluoromethyl)benzyl) (3,3,3-trifluoropropyl)amino)-2′-(1H-tetrazol-5-yl)-[1,1′-biphenyl]-3-yl)urea], the IC50 in experiment [1] turned out to be 20 nM; in experiment [2] it was 50 nM.

For the molecule `O=C(Nc1ccc(C(F)(F)F)cc1F)Nc1cc(-c2ccccc2-c2nnn[nH]2)ccc1N(CCC(F)(F)F)Cc1ccc(OC(F)(F)F)cc1` [Example 301, 1-(2′-(1H-tetrazol-5-yl)-4-((4-(trifluoromethoxy)benzyl)(3,3,3-trifluoropropyl)amino)-[1,1′-biphenyl]-3-yl)-3-(2-fluoro-4-(trifluoromethyl)phenyl)urea], the values for the IC50 in experiment [1] and in experiment [2] were 2.85 nM and 7.87 nM, respectively.

On to `O=C(Nc1ccc(C2CC2)cc1)Nc1cc(-c2ccccc2-c2nnn[nH]2)ccc1N(CCC(F)(F)F)Cc1ccc(OC(F)(F)F)cc1` [Example 302, 1-(2′-(1H-tetrazol-5-yl)-4-((4-(trifluoromethoxy)benzyl)(3,3,3-trifluoropropyl)amino)-[1,1′-biphenyl]-3-yl)-3-(4-cyclopropylphenyl)urea], for which the IC50 in experiment [1] came to 3.26 nM; in experiment [2], 5.53 nM.

Consider `O=C(Nc1ccc(C(F)(F)F)cc1F)Nc1cc(-c2ccccc2-c2nnn[nH]2)ccc1N(CCC(F)(F)F)Cc1ccccn1` [Example 303, 1-(2-fluoro-4-(trifluoromethyl)phenyl)-3-(4-((pyridin-2-ylmethyl)(3,3,3-trifluoropropyl)amino)-2′-(1H-tetrazol-5-yl)-[1,1′-biphenyl]-3-yl)urea], for which the IC50 in experiment [1] is 50 nM; in experiment [2] it was 280 nM.

As to `Cc1ccc(NC(=O)Nc2cc(-c3ccccc3-c3nnn[nH]3)ccc2N2CC3CC2CN3Cc2ccccc2)cc1` (stereo not drawn) [Example 317, 1-(4-(5-benzyl-2,5-diazabicyclo[2.2.1]heptan-2-yl)-2′-(1H-tetrazol-5-yl)-[1,1′-biphenyl]-3-yl)-3-(p-tolyl)urea], the IC50 in experiment [1] is 30 nM; in experiment [2], 50 nM.

For `O=C(Nc1ccc(F)cc1F)Nc1cc(-c2ccccc2-c2nnn[nH]2)ccc1N(CCCC(F)(F)F)Cc1ccc(Cl)cc1` [Example 319, 1-(4-((4-chlorobenzyl)(4,4,4-trifluorobutyl)amino)-2′-(1H-tetrazol-5-yl)-[1,1′-biphenyl]-3-yl)-3-(2,4-difluorophenyl) urea], the IC50 in experiment [1] and in experiment [2] was 20 nM throughout.

Regarding `O=C(Nc1ccc(OC(F)(F)F)cc1)Nc1cc(-c2ccccc2-c2nnn[nH]2)ccc1N(CCCC(F)(F)F)Cc1ccc(Cl)cc1` [Example 322, 1-(4-((4-chlorobenzyl)(4,4,4-trifluorobutyl)amino)-2′-(1H-tetrazol-5-yl)-[1,1′-biphenyl]-3-yl)-3-(4-(trifluoromethoxy)phenyl)urea], the IC50 in experiment [1] was 60 nM; in experiment [2] it was 220 nM.

For the molecule `O=C(Nc1ccc(F)cc1F)Nc1cc(-c2ccccc2-c2nnn[nH]2)ccc1N(CCc1ccccc1)CCC(F)(F)F` [Example 332, 1-(2,4-difluorophenyl)-3-(4-(phenethyl(3,3,3-trifluoropropyl)amino)-2′-(1H-tetrazol-5-yl)-[1,1′-biphenyl]-3-yl) urea], the IC50 in experiment [1] turned out to be 80 nM; in experiment [2] it was 110 nM.

For `O=C(Nc1ccc(F)cc1F)Nc1cc(-c2ccccc2-c2nnn[nH]2)ccc1N(CCC(F)(F)F)Cc1ccc(F)cc1C(F)(F)F` [Example 340, 1-(2,4-difluorophenyl)-3-(4-((4-fluoro-2-(trifluoromethyl)benzyl) (3,3,3-trifluoropropyl)amino)-2′-(1H-tetrazol-5-yl)-[1,1′-biphenyl]-3-yl)urea], the IC50 in experiment [1] is 30 nM; in experiment [2] it was 40 nM.

Turning to `Cc1ccc(NC(=O)Nc2cc(-c3ccccc3-c3nnn[nH]3)ccc2N(CCC(F)(F)F)Cc2ccc(OC(F)(F)F)cc2)cc1` [Example 341, 1-(2′-(1H-tetrazol-5-yl)-4-((4-(trifluoromethoxy)benzyl)(3,3,3-trifluoropropyl)amino)-[1,1′-biphenyl]-3-yl)-3-(p-tolyl)urea], the IC50 in experiment [1] was found to be 1.73 nM; in experiment [2] it was 0.845 nM.

With `O=C(Nc1ccc(F)cc1F)Nc1cc(-c2ccccc2-c2nnn[nH]2)ccc1N(CCC(F)(F)F)Cc1ccccn1` [Example 344, 1-(2,4-difluorophenyl)-3-(4-((pyridin-2-ylmethyl)(3,3,3-trifluoropropyl)amino)-2′-(1H-tetrazol-5-yl)-[1,1′-biphenyl]-3-yl) urea], the IC50 in experiment [1] was determined as 30 nM; in experiment [2] it was 50 nM.

Turning to `O=C(Nc1ccc(C2CC2)cc1)Nc1cc(-c2ccccc2-c2nn[nH]n2)ccc1N1CC2CC1CN2Cc1ccccc1` (stereo not drawn) [Example 348, 1-(4-(5-benzyl-2,5-diazabicyclo[2.2.1]heptan-2-yl)-2′-(2H-tetrazol-5-yl)-[1,1′-biphenyl]-3-yl)-3-(4-cyclopropylphenyl)urea], the IC50 in experiment [1] and in experiment [2] was 10 nM in each case.

Regarding `O=C(Nc1ccc(C2CC2)cc1)Nc1cc(-c2ccccc2-c2nnn[nH]2)ccc1N(CCCC(F)(F)F)Cc1ccc(Cl)cc1` [Example 349, 1-(4-((4-chlorobenzyl)(4,4,4-trifluorobutyl)amino)-2′-(1H-tetrazol-5-yl)-[1,1′-biphenyl]-3-yl)-3-(4-cyclopropylphenyl)urea], the IC50 worked out at 7.49 nM in experiment [1] and 130 nM in experiment [2].

As to `O=C(Nc1ccc(C2CC2)c(F)c1)Nc1cc(-c2ccccc2-c2nnn[nH]2)ccc1N(CCC(F)(F)F)Cc1ccc(F)cc1C(F)(F)F` [Example 352, 1-(4-cyclopropyl-3-fluorophenyl)-3-(4-((4-fluoro-2-(trifluoro-methyl)benzyl) (3,3,3-trifluoropropyl)amino)-2′-(1H-tetrazol-5-yl)-[1,1′-biphenyl]-3-yl)urea], the figures for the IC50 in experiment [1] and in experiment [2] were 90 nM and 220 nM, respectively.

With `O=C(Nc1ccc(C2CC2)c(F)c1)Nc1cc(-c2ccccc2-c2nnn[nH]2)ccc1N(CCC(F)(F)F)Cc1ccc(OC(F)(F)F)cc1` [Example 353, 1-(2′-(1H-tetrazol-5-yl)-4-((4-(trifluoromethoxy)benzyl)(3,3,3-trifluoro-propyl)amino)-[1,1′-biphenyl]-3-yl)-3-(4-cyclopropyl-3-fluorophenyl)urea], the IC50 in experiment [1] is 5.1 nM; in experiment [2], 2.37 nM.

In the case of `Cc1ccc(NC(=O)Nc2cc(-c3cc(F)ccc3-c3nnn[nH]3)c(F)cc2N(CC(C)C)C2CCCCC2)cc1` [Example 355, 1-(4-(cyclohexyl(isobutyl)amino)-5′,6-difluoro-2′-(1H-tetrazol-5-yl)-[1,1′-biphenyl]-3-yl)-3-(p-tolyl)urea], the half-maximal inhibitory concentration (IC50) in experiment [1] was found to be 2.37 nM; in experiment [2] it was 3.29 nM.

Regarding `C=CC(c1ccccc1)c1cc(-c2ccccc2-c2nnn[nH]2)cc(NC(=O)Nc2ccccc2F)c1NCC(C)C` (stereo not drawn) [Example 357, 1-(2-fluorophenyl)-3-(4-(isobutylamino)-5-(1-phenylallyl)-2′-(1H-tetrazol-5-yl)-[1,1′-biphenyl]-3-yl)urea], the figures for the IC50 in experiment [1] and in experiment [2] were 40 nM and 320 nM, respectively.

On to `C=CC(c1ccccc1)c1cc(-c2ccccc2-c2nnn[nH]2)cc(NC(=O)Nc2ccc(C)cc2)c1NCC(C)C` (stereo not drawn) [Example 358, 1-(4-(isobutylamino)-5-(1-phenylallyl)-2′-(1H-tetrazol-5-yl)-[1,1′-biphenyl]-3-yl)-3-(p-tolyl)urea], for which the IC50 stood at 20 nM in experiment [1] and 350 nM in experiment [2].

In the case of `Cc1ccc(NC(=O)Nc2cc(-c3ccccc3-c3nnn[nH]3)ccc2N2CCCc3ccccc32)cc1` [Example 361, 1-(4-(3,4-Dihydroquinolin-1(2H)-yl)-2′-(1H-tetrazol-5-yl)-[1,1′-biphenyl]-3-yl)-3-(p-tolyl)urea], the IC50 worked out at 110 nM in experiment [1] and 220 nM in experiment [2].

Take `Cc1ccc(NC(=O)Nc2cc(-c3cc(F)ccc3C(=O)O)ccc2N2CCCc3ccccc32)cc1` [Example 373, 4′-(3,4-Dihydroquinolin-1(2H)-yl)-5-fluoro-3′-(3-(p-tolyl)ureido)-[1,1′-biphenyl]-2-carboxylic acid]: the IC50 is 3340 nM in experiment [1] and 4000 nM in experiment [2].

As to `Cc1ccc(NC(=O)Nc2cc(-c3ccccc3C(=O)O)ccc2N(CC(C)C)C2CCOCC2)cc1` [Example 378], the IC50 in experiment [1] is 60 nM; in experiment [2], 70 nM.

`Cc1ccc(NC(=O)Nc2cc(-c3ccccc3-c3nnn[nH]3)ccc2N(CC(C)C)C2CCOCC2)cc1` [Example 379]: the IC50 in experiment [1] was found to be 20 nM; in experiment [2] it was 30 nM.

For `Cc1ccc(NC(=O)Nc2cc(-c3cc(F)ccc3C(=O)O)ccc2N(CC(C)C)CC2CC(F)(F)C2)cc1` [Example 380], the IC50 in experiment [1] is 50 nM; in experiment [2], 70 nM.

One may read the IC50 as the concentration that inhibits the measured activity by half.
